From patent US6039950A, “Pharmaceutical grade saw palmetto” (priority 1997, dated 2000)
“And” between values parts separate entries of the source, which are not always exact repeats. Equal entries are not always repeated. Where two headings read alike, the source gives them in different places. Numbered stars: 1 amine (or outer) side, 2 acyl side, 3 side chain; on linkers, the order of the positions; unused ones are H or OH. Bridge positions count the residues as written; N and C are the ends. Square brackets hold non-standard residues; d marks the D form. Peptide text beside a SMILES is read from it. I, II: the chains in the order shown. Actinocin(9to1) = Cc1c2oc3c(C)ccc(C(=O)[*:1])c3nc-2c(C(=O)[*:2])c(N)c1=O; NMeV = CN[C@H](C(=O)O)C(C)C; Sar = CNCC(=O)O

Assays:
[1] = test system: smooth muscle; details: cited from earlier work
[2] = molecular target: T1, 5-lipoxygenase (Rattus norvegicus, UniProt P12527); assay: biochemical; details: for 5-Lipo activity: screened at 3×10^-5 (30 μM)
T1 sequence (P12527 1-673): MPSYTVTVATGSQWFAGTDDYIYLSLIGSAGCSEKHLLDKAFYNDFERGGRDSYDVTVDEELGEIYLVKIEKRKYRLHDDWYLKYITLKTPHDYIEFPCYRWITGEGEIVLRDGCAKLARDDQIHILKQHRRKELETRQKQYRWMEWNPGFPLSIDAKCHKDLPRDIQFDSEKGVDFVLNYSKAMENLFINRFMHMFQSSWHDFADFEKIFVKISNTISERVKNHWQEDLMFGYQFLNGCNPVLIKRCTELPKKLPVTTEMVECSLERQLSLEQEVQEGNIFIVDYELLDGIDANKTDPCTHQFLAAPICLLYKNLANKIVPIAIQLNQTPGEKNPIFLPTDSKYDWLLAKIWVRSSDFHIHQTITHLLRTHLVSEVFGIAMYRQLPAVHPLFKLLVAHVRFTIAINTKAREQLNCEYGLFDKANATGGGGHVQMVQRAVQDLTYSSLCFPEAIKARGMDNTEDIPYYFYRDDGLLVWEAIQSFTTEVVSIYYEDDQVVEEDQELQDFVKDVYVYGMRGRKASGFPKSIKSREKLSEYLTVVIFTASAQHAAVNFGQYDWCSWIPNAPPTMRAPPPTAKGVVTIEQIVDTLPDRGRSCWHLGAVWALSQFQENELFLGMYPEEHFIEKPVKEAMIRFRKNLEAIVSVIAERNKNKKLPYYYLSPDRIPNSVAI
Method: The procedure was as follows. 5-lipoxygenase assays were run using a crude enzyme preparation from rat basophilic leukemia cells (RBL-1). Test compounds were pre-incubated with the enzyme for 5 minutes at room temperature and the reaction was initiated by addition of substrate (arachidonic acid). Following an 8 minute incubation at room temperature, the reaction was terminated by addition of citric acid, and levels of 5-HETE were determined by 5-HETE radioimmunoassay (RIA).
Compounds and fractions were screened at an initial concentration of 3×10^-5.

[3] = molecular target: T2, Cyclooxygenase-1 (Ovis aries, UniProt P05979); assay: biochemical; assay type: biochemical, ram; details: for Cox1 activity: screened at 3×10^-4 M
T2 construct: Cyclooxygenase-1 (from ram seminal vesicles); from tissue; host or cells: ram seminal vesicles; assay by Panlabs
T2 sequence (P05979 25-600): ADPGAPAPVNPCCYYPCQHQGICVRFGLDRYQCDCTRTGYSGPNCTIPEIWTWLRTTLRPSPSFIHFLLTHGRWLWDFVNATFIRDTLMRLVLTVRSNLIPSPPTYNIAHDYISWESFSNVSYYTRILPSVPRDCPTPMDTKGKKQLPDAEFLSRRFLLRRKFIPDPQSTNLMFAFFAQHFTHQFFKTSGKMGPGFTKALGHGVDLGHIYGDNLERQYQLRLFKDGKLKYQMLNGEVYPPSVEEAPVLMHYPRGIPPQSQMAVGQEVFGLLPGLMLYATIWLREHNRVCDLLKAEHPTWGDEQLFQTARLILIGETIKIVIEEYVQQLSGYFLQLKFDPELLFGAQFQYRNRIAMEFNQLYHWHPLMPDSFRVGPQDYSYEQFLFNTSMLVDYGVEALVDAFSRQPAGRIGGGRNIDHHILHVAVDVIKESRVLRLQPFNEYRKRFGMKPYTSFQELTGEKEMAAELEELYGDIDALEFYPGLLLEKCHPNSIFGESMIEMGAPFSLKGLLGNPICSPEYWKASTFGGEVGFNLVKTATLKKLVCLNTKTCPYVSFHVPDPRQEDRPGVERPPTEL
Method: The reaction was initiated by addition of arachidonic acid (100 mM) and terminated after 20 minutes incubation at 37° C. by addition of trichloroacetic acid (TCA).

[4] = molecular target: T3, Cyclooxygenase-2 (Ovis aries, UniProt P79208); assay: biochemical; assay type: biochemical, sheep
T3 construct: Cyclooxygenase-2 (from sheep placenta); from tissue; host or cells: sheep placenta; assay by Panlabs
Method: The reaction is initiated by addition of arachidonic acid (100 mM) and terminated after 20 minutes incubation at 37° C. by addition of TCA.

[5] = molecular target: T4, rat prostatic androgen receptor (Rattus norvegicus, UniProt P15207); assay: Rat prostatic nuclear androgen receptor binding assay against 3H-dihydrotestosterone
T4 construct: the ventral prostates were rapidly removed and placed in ice-cold "homogenization buffer"; from tissue; host or cells: washed nuclear suspension of ventral prostate from testosterone-treated male rats (Harlan)
T4 sequence (P15207 1-902): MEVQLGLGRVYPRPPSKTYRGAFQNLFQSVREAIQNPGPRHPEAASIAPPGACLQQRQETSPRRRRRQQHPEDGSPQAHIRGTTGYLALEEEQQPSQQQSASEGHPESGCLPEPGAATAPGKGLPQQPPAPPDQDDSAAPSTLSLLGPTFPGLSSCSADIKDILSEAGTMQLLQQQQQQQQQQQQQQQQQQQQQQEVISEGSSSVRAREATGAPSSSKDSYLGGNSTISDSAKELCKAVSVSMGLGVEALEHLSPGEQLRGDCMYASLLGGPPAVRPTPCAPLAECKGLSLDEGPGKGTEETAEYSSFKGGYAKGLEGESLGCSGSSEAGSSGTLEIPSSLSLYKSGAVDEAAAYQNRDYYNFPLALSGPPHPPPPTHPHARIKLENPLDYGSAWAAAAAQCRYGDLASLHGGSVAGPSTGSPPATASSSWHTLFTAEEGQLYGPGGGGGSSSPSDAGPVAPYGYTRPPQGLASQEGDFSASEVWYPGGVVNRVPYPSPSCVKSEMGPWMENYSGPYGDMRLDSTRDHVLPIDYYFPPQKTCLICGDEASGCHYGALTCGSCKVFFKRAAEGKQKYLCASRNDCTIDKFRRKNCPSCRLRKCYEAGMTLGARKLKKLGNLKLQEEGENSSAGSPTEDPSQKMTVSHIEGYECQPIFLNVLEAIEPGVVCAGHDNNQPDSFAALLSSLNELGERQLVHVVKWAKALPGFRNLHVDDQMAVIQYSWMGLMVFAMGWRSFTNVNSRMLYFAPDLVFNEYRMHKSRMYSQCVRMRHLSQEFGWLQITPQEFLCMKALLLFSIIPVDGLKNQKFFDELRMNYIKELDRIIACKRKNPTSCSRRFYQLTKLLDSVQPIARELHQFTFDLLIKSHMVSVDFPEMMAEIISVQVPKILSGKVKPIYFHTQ
Method: Rats were fed with Purina chow and tap water, ad libitum.
General chemicals (reagent grade), free fatty acids, fatty acid ethyl esters and radioinert steroids were obtained from Sigma Chemical Company (St. Louis, Mo.). ^3 H-dihydrotestosterone (5α-androstan-17β-ol-3-one; 60 Ci/mmol) was purchased from NEN Life Science Products (Boston, Mass.). 100% ethanol was used throughout for the preparations of all inhibitors and radioinert chemicals.
The animals were treated intraperitoneally with testosterone (400 μg/100 g body wt). […] The homogenate was centrifuged at 800×g for 20 minutes at 4° C. […] The resuspended pellet was homogenized on ice using a glass Dounce homogenizer until suspension became uniform.
Non-specific binding was determined using radioinert dihydrotestosterone (10^-5 M) in place of the inhibitor. The test tubes were incubated for 20 hours at 15° C.
After an overnight incubation, 1 ml of ice-cold nuclear buffer was added followed by centrifugation at 800×g for 10 minutes at 4° C. The nuclear pellets were washed 3 times by resuspension in 1 ml of the same ice-cold nuclear buffer, with mixing and centrifugation as above. After discarding the final supernatant, 1 ml of 100% ethanol was added to each pellet and then vortexed. Test tubes were placed in a 30° C. water bath for 40 minutes, with vortexing every 10 minutes and a final centrifugation at 800 g for 10 minutes. The ethanol extracts were decanted into vials containing 4 ml of scintillation fluid (Ecoscint A), shaken and counted.
The results, expressed as percent inhibition of ^3 H-Dihydrotestosterone binding, at two concentrations of putative active components, of the rat prostatic androgen receptor assay are below.

[6] = test system: Type 1 5α-reductase; details: cited from earlier work
[7] = test system: Type 2 5α-reductase; details: cited from earlier work
[8] = Table 8, read-out: Cyclooxygenase-1 IC50 (Table 8)
[9] = Table 8, read-out: 5 Lipoxygenase IC50 (Table 8)
[10] = Table 8, read-out: Cyclooxygenase-2 IC50 (Table 8)
[11] = read-out: Testosterone affinity, Km

T3 sequence (P79208 17-603): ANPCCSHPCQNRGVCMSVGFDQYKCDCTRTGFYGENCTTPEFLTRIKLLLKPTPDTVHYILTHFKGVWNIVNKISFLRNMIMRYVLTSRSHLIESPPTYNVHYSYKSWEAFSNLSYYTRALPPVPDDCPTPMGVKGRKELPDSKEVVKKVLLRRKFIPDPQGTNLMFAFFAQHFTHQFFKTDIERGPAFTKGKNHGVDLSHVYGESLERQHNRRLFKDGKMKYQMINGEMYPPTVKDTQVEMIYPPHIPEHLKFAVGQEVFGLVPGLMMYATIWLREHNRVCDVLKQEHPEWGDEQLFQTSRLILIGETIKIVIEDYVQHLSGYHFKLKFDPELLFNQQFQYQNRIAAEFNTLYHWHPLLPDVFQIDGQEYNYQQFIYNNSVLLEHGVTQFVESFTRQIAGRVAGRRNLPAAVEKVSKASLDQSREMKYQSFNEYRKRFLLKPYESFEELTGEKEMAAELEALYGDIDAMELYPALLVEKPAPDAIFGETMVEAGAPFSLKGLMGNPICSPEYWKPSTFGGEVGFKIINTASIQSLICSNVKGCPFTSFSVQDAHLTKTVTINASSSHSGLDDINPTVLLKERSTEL

SMILES | effect on relaxant effect of Sabal extracts [1] | 5-Lipo activity [2] | IC50 [3, 8] [µM] | Cox1 activity [3] | Cox2 activity [4] | also measured
C[C@@H]1C[C@@H]([C@H](O)CC2CC(=O)NC(=O)C2)C(=O)[C@@H](C)C1 [Cycloheximide] | antagonized | – | – | – | – | –
CCCCCCCC/C=C\CCCCCCCC(=O)OCC [Ethyl Oleate] | – | Negative | > 300 | Negative | Negative | IC50 [2]: > 30 µM; IC50 [4]: > 300 µM
CCCCCCCCCCCCCCCC(=O)OCC [Ethyl Palmitate] | – | Negative | > 300 | Negative | Negative | IC50 [2, 9]: > 30 µM; IC50 [4, 10]: > 300 µM
CCCCC/C=C\C/C=C\CCCCCCCC(=O)OCC [Ethyl linoleate, ethyl linoleate] | – | Negative | > 300 | Negative | Negative | IC50 [2, 9]: > 30 µM; IC50 [4, 10]: > 300 µM
CC/C=C\C/C=C\C/C=C\CCCCCCCC(=O)OCC [Ethyl linolenate] | – | Negative | > 300 | Negative | Negative | IC50 [2, 9]: > 30 µM; IC50 [4, 10]: > 300 µM
CC(C)NC[C@H](O)COc1cccc2ccccc12 [L-propranolol] | potentiated | – | – | – | – | –
CCCCCCCCCCCCCC(=O)O [Myristic Acid] | – | Negative | > 300 | Negative | Negative | IC50 [2]: > 30 µM; IC50 [4, 10]: > 300 µM
CCCCCCCCCCCCCC(=O)OCC [Myristic Ester, ethyl myristate] | – | Negative | – | Negative | Negative | –
CCCCCCCC/C=C\CCCCCCCC(=O)O [Oleic Acid] | – | Negative | > 300 | Negative | Negative | IC50 [2, 9]: > 30 µM; IC50 [4]: > 300 µM
CCCCCCCCCCCCCCCC(=O)O [Palmitic Acid] | – | Negative | > 300 | Negative | Negative | IC50 [2, 9]: > 30 µM; IC50 [4, 10]: > 300 µM
C/C(=C\CO)CCC[C@H](C)CCC[C@H](C)CCCC(C)C [Phytol] | – | – | – | – | – | % Inh, individual experiment ([5]; 1.00E-04 M): 87.0% and 64% and 97% and 8.0% and 31% and 29% and 33%; % Inh, individual experiment ([5]; 1.00E-05 M): 0.0% and 76% and 10% and 4.0% and 26% and 38% and 41%; % Inh, Mean ([5]; 1.00E-05 M, SE 10.1): 32.0%; % Inh, individual experiment ([5]; 1.00E-06 M): 82.0% and 88% and 81% and 31% and 25% and 3.0% and 7.0%; % Inh, Mean ([5]; 1.00E-06 M, SE 14.12): 31.0%; % Inh, individual experiment ([5]; 3.00E-05 M): 89.0% and 90% and 32% and 25% and 9.0% and 20% and 21%; % Inh, Mean ([5]; 3.00E-05 M, SE 12.8): 28.5%; % Inh, individual experiment ([5]; 3.00E-06 M): 65% and 0.0% and 9.0% and 73%; % Inh, Mean ([5]; 3.00E-06 M, SE 12.5): 9.0%; % Inh, individual experiment ([5]; 3.00E-07 M): 14.0% and 2.0% and 0.0%; % Inh, Mean ([5]; 3.00E-07 M, SE 4.3): 2.0%; IC50 ([5]; Table 4, marker compounds, read-out: Androgen Receptor IC50 (Table 4)): 10 µM; inhibition at 10 µM ([5]; at 10 μM): 50%; IC50 ([5]; read-out: androgen receptor assay IC50): 10 µM
CC(C)NC[C@@H](O)COc1cccc2ccccc12 [R-propranolol] | inactive | – | – | – | – | –
NCCCC(N)(C(=O)O)C(F)F (stereo not shown) [a-difluoromethyl-ornithine] | not modified | – | – | – | – | –
Cc1c2oc3c(C)ccc(C(=O)N[C@@H]4C(=O)N[C@H](C(C)C)C(=O)N5CCC[C@H]5C(=O)N(C)CC(=O)N(C)[C@@H](C(C)C)C(=O)O[C@@H]4C)c3nc-2c(C(=O)N[C@@H]2C(=O)N[C@H](C(C)C)C(=O)N3CCC[C@H]3C(=O)N(C)CC(=O)N(C)[C@@H](C(C)C)C(=O)O[C@@H]2C)c(N)c1=O [actinomycin D] (I: T[dV]P[Sar][NMeV] / II: T[dV]P[Sar][NMeV]; ester I:1-I:C, II:1-II:C; linker I:N-II:N via Actinocin(9to1)) | antagonized the effect of the total lipidic extract without modifying that of the saponifiable extract | – | – | – | – | –
O=c1c(-c2ccc(O)cc2)coc2cc(O)cc(O)c12 [genistein] | not modified | – | – | – | – | –
O=C1CCN(c2ccccc2)N1 [phenidone, reference compound] | – | – | – | – | – | IC50 ([2]; reference compound, read-out: IC50, reference compounds, 5-lipoxygenase): 30 µM
C[C@]12CC[C@H]3[C@@H](CCC4=CC(=O)CC[C@@]43C)[C@@H]1CC[C@@H]2O [testosterone] | – | – | – | – | – | Testosterone, Vmax [6]: 4.2 nmoles/10^6 cells/min; Km [6, 11]: 2.9 µM; Testosterone, Vmax [7]: 57.6 nmoles/10^6 cells/min; Km [7, 11]: 0.5 µM
CC[C@H](CC[C@@H](C)[C@H]1CC[C@H]2[C@@H]3CC=C4C[C@@H](O)CC[C@]4(C)[C@H]3CC[C@]12C)C(C)C [β-sitosterol] | – | – | – | – | – | IC50 [2]: > 30 µM; IC50 [3]: > 300 µM; IC50 [4]: > 300 µM
